Measurements: patent US11993576B2, “N-benzyl-N-arylsulfonamide derivative and preparation and use thereof” (Hangzhou Yirui Pharmaceutical Technology Co., Ltd, priority 2019, dated 2024)

Experiments:
[1] = target: human Kv1.3 (Homo sapiens, UniProt P22001); experiment: Conventional patch clamp assay of inhibitory activity against Kv1.3; format: cell-based; conditions: conventional patch-clamp method; CHO-K1 cells stably expressing human Kv1.3
Text: II. Conventional Patch Clamp Assay of Inhibitory Activity Against Kv1.3
In order to compare the influence of different assay methods on the inhibitory activity of a compound, the conventional patch clamp method was used to assay the inhibitory activities of compounds 21, 37, 44, 61 against Kv1.3. The principle and method for the conventional patch clamp method can be found in Grissmer et al. [Grissmer et al. Molecular Pharmacology 1994, 45:1227-1234].
(§1) Inhibitory activity of the compounds against Kv1.3 was assessed using a CHO-K1 recombinant cell line stably expressing human Kv1.3 (Charles River, California). The cells were cultured in an F-12K culture medium containing 5% calf serum (Invitrogen, Carlsbad.ca) in an incubator at 37° C. and under air humidity with 6% CO2.
(§2) During the experiment, adherent cells were placed in a recording chamber under an inverted microscope. All the experiments were performed at room temperature. Each of the cells used itself as the control.
(§3) The test compounds were formulated to their final concentrations on the day of assay, and then dissolved in an extracellular fluid. The extracellular fluid (mM) was: NaCl, 137; KCl, 4; CaCl2, 1.8; MgCl2, 1; HEPES, 10; glucose 10; pH 7.4 (NaOH titration). All the solutions of the test compounds and the control compounds contained 0.3% of DMSO.
(§4) Each of the compounds was perfused by a gravity-driven perfusion system. At least two cells were tested for each of the concentrations of a compound. After the current was stable, the blocking effect of the compounds was calculated by comparing the change in the current before and after administration of the compounds. 1000 μM 4-AP was used as a positive control.
(§5) The cells were transferred to a perfusion chamber, and were perfused with the extracellular fluid. Intracellular fluid (mM): K-aspartate, 130; MgCl2, 5; EGTA 5; HEPES, 10; pH 7.2 (KOH titration). The intracellular fluid was stored in a small amount in a refrigerator at −80° C. in batches, and was thawed on the day of the experiment. The electrodes were drawn by PC-10 (Narishige, Japan). A whole-cell patch-clamp recording was performed, with the noise being filtered by one-fifth of the sampling frequency.
(§6) The cells were clamped at −80 mV and then depolarized to 0 mV with square waves lasting for 2 seconds to obtain a Kv1.3 current. This process was repeated every 20 seconds. The maximum current elicited by the square waves was detected. After the maximum current became stable, the test compounds were perfused. After the reaction was stable, the blocking strength was calculated.
Data was collected and analyzed using pCLAMP 10 (Molecular Devices, Union City, CA). A stable current meant a current which varies within a limited range over time. […]

[2] = target: human Kv1.5 (Homo sapiens, UniProt P22460); experiment: Conventional patch clamp assay of inhibitory activity against Kv1.5; format: cell-based; conditions: conventional patch-clamp method; CHO-K1 cells stably expressing human Kv1.5
human Kv1.5, sequence (P22460 whole entry): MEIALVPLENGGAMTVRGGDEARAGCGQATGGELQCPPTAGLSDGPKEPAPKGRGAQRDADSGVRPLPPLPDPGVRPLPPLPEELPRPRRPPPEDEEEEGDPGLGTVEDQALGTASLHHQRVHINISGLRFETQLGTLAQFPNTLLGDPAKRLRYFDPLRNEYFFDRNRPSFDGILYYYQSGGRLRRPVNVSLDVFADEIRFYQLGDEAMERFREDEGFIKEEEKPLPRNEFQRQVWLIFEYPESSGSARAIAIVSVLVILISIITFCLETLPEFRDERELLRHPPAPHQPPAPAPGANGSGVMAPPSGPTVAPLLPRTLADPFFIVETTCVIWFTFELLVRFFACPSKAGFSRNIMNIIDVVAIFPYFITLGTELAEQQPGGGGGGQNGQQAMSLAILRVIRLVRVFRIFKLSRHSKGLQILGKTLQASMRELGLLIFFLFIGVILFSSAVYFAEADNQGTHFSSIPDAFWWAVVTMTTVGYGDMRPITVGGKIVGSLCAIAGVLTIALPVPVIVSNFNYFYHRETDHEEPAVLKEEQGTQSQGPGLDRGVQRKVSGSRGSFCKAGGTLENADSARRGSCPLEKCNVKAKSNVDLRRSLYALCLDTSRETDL
Description: III. Conventional Patch Clamp Assay of Inhibitory Activity Against Kv1.5
The principle and method for the conventional patch clamp method can be found in Grissmer et al. [Grissmer et al. Molecular Pharmacology 1994, 45:1227-1234].
as §1, with “a” for “the”, “Kv1.5” for “Kv1.3”, “Calif.).” for “California).”
as §2, §3
as §4, with “compounds.” for “compounds. 1000 μM 4-AP was used as a positive control.”
1000 μM 4-AP was used as a positive control.
as §5
as §6, with “to 20” for “to 0”, “a Kv1.5” for “a Kv1.3”
Data was collected and analyzed using pCLAMP 10 (Molecular Devices, Union City, CA). A stable current meant a current which varies within a limited range over time. The value of the stable current was used to calculate the effect of a compound at this […].

human Kv1.3, sequence (P22001 whole entry): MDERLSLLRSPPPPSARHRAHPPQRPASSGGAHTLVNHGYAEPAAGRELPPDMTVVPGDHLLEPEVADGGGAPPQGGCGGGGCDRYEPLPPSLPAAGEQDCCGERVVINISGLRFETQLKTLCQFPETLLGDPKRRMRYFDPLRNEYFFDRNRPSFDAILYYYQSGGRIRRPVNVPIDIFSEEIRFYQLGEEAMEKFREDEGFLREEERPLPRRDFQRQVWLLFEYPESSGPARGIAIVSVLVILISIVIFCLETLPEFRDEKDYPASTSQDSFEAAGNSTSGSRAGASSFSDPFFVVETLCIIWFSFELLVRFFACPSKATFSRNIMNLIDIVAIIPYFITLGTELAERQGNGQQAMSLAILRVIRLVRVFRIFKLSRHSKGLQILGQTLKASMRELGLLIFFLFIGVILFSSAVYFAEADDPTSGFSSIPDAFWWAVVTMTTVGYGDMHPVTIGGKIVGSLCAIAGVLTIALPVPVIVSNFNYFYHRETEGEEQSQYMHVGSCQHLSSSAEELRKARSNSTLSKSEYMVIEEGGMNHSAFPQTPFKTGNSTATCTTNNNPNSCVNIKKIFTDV

IC50 [1]: 108 nM
IC50 [2]: 3650 nM
SMILES: CC(C)CS(=O)(=O)N(Cc1ccc(F)cc1)c1ccc(N2CCN(C(=O)N(C)C)CC2)c(C#N)c1 [Compound 37, 4-(2-cyano-4-((N-(4-fluorobenzyl)-2-methylpropyl)sulfonamido)phenyl)-N,N-dimethylpiperazin-1-formamide]
